Tests used:
[1] = test system: A549-ACE2 infected with SARS-CoV-2; assay: cell count relative to DMSO; higher = less toxic; details: 24 h
Caco-2 [2] = assay: cell viability relative to DMSO; higher = less toxic; details: 72 h
Calu-3 [3] = assay: as above; details: 72 h
HepG2 [4] = assay: as above; details: 72 h
U2OS [5] = assay: as above; details: 72 h
Vero E6 [6] = assay: as above; details: 72 h
[7] = test system: A549-ACE2 infected with SARS-CoV-2; assay: SARS-CoV-2 infection rate relative to DMSO; higher = more infection; details: 24 h
A549-ACE2 [8] = assay: phospholipidosis EC50; higher = less potent phospholipidosis inducer
A549-ACE2 [9] = assay: drug-induced phospholipidosis relative to tamoxifen; higher = more phospholipidosis
[10] = test system: A549-ACE2 infected with SARS-CoV-2; assay: morphology score (similarity to uninfected cells); higher = more like uninfected cells; details: 24 h
HepG2 [11] = assay: relative viability EC50 (midpoint between 100% and the lowest measured viability); higher = less toxic; details: 72 h
U2OS [12] = assay: as above; details: 72 h
Vero E6 [13] = assay: as above; details: 72 h
Caco-2 [14] = assay: drug sensitivity score (DSS) for viability; higher = more toxic; extreme values may be limits of the assay; details: 72 h
Calu-3 [15] = assay: as above; details: 72 h
HepG2 [16] = assay: as above; details: 72 h
U2OS [17] = assay: as above; details: 72 h
Vero E6 [18] = assay: as above; details: 72 h
Calu-3 [19] = assay: relative viability EC50 (midpoint between 100% and the lowest measured viability); higher = less toxic; details: 72 h
Caco-2 [20] = assay: as above; details: 72 h

CC(C)n1nc(C#Cc2ccccc2)c2c(N)ncnc21 [SPP86]
Details	SARS-CoV-2 infection rate [%]	cell count [%]	cell viability [%]	morphology score	phospholipidosis EC50 [µM]
A549-ACE2 [8], 24 h	–	–	–	–	15.1
Caco-2 [2], 1 nM	–	–	98.1	–	–
Caco-2 [2], 10 nM	–	–	98.9	–	–
Caco-2 [2], 100 nM	–	–	88.9	–	–
Caco-2 [2], 1000 nM	–	–	67.7	–	–
Caco-2 [2], 10000 nM	–	–	56.5	–	–
Calu-3 [3], 1 nM	–	–	107	–	–
Calu-3 [3], 10 nM	–	–	104	–	–
Calu-3 [3], 100 nM	–	–	99.7	–	–
Calu-3 [3], 1000 nM	–	–	92.7	–	–
Calu-3 [3], 10000 nM	–	–	62.8	–	–
HepG2 [4], 1 nM	–	–	102	–	–
HepG2 [4], 10 nM	–	–	106	–	–
HepG2 [4], 100 nM	–	–	103	–	–
HepG2 [4], 1000 nM	–	–	60.9	–	–
HepG2 [4], 10000 nM	–	–	34.4	–	–
U2OS [5], 1 nM	–	–	106	–	–
U2OS [5], 10 nM	–	–	109	–	–
U2OS [5], 100 nM	–	–	107	–	–
U2OS [5], 1000 nM	–	–	107	–	–
U2OS [5], 10000 nM	–	–	75.7	–	–
Vero E6 [6], 1 nM	–	–	99.7	–	–
Vero E6 [6], 10 nM	–	–	99.7	–	–
Vero E6 [6], 100 nM	–	–	100	–	–
Vero E6 [6], 1000 nM	–	–	98.5	–	–
Vero E6 [6], 10000 nM	–	–	81.3	–	–
[1], 0.3 µM	–	103	–	–	–
[1], 3 µM	–	103	–	–	–
[1], 10 µM	–	106	–	–	–
[1], 30 µM	–	84	–	–	–
[7], 0.3 µM	90	–	–	–	–
[7], 3 µM	89	–	–	–	–
[7], 10 µM	53	–	–	–	–
[7], 30 µM	32	–	–	–	–
[10], 0.3 µM	–	–	–	0.34	–
[10], 3 µM	–	–	–	0.41	–
[10], 10 µM	–	–	–	0.54	–
[10], 30 µM	–	–	–	0.29	–

drug-induced phospholipidosis [%], A549-ACE2 [9]
Details	0.3 µM	0.833333 µM	3.33333 µM	6.66667 µM	10 µM	30 µM
24 h	3.29	3.69	12.6	41.4	63.6	142
48 h	3.96	2.69	12.1	21.7	35.6	–
72 h	6.41	0.816	8.31	18.5	28.1	–

Details	drug sensitivity score	relative viability EC50 [µM]
Caco-2 [14]	6.9	–
Calu-3 [15]	3	–
HepG2 [11]	–	0.858
HepG2 [16]	8.3	–
U2OS [12]	–	> 10
U2OS [17]	0.6	–
Vero E6 [13]	–	> 10
Vero E6 [18]	0.7	–

C[C@H](Oc1cc(-c2cnn(C3CCNCC3)c2)cnc1N)c1c(Cl)ccc(F)c1Cl [crizotinib-(S)]
Details	SARS-CoV-2 infection rate [%]	cell count [%]	cell viability [%]	morphology score	phospholipidosis EC50 [µM]
A549-ACE2 [8], 24 h	–	–	–	–	1.79
A549-ACE2 [8], 48 h	–	–	–	–	3.04
A549-ACE2 [8], 72 h	–	–	–	–	3.1
Caco-2 [2], 1 nM	–	–	93.9	–	–
Caco-2 [2], 10 nM	–	–	95.3	–	–
Caco-2 [2], 100 nM	–	–	99.2	–	–
Caco-2 [2], 1000 nM	–	–	95.1	–	–
Caco-2 [2], 10000 nM	–	–	62.1	–	–
Calu-3 [3], 1 nM	–	–	97.8	–	–
Calu-3 [3], 10 nM	–	–	96.2	–	–
Calu-3 [3], 100 nM	–	–	100.3	–	–
Calu-3 [3], 1000 nM	–	–	100.4	–	–
Calu-3 [3], 10000 nM	–	–	40	–	–
HepG2 [4], 1 nM	–	–	100	–	–
HepG2 [4], 10 nM	–	–	108	–	–
HepG2 [4], 100 nM	–	–	104	–	–
HepG2 [4], 1000 nM	–	–	90.9	–	–
HepG2 [4], 10000 nM	–	–	43.3	–	–
U2OS [5], 1 nM	–	–	98.3	–	–
U2OS [5], 10 nM	–	–	96.3	–	–
U2OS [5], 100 nM	–	–	99.2	–	–
U2OS [5], 1000 nM	–	–	96	–	–
U2OS [5], 10000 nM	–	–	41.1	–	–
Vero E6 [6], 1 nM	–	–	97.2	–	–
Vero E6 [6], 10 nM	–	–	99.6	–	–
Vero E6 [6], 100 nM	–	–	100	–	–
Vero E6 [6], 1000 nM	–	–	97	–	–
Vero E6 [6], 10000 nM	–	–	80.7	–	–
[1], 0.1 µM	–	100	–	–	–
[1], 0.3 µM	–	102	–	–	–
[1], 1 µM	–	87	–	–	–
[1], 3 µM	–	93	–	–	–
[1], 10 µM	–	109	–	–	–
[1], 30 µM	–	18	–	–	–
[7], 0.1 µM	96	–	–	–	–
[7], 0.3 µM	100	–	–	–	–
[7], 1 µM	94	–	–	–	–
[7], 3 µM	30	–	–	–	–
[7], 10 µM	24	–	–	–	–
[7], 30 µM	82	–	–	–	–
[10], 0.1 µM	–	–	–	0.15	–
[10], 0.3 µM	–	–	–	0.025	–
[10], 1 µM	–	–	–	0.27	–
[10], 3 µM	–	–	–	0.71	–
[10], 10 µM	–	–	–	0.36	–
[10], 30 µM	–	–	–	-0.08	–

drug-induced phospholipidosis [%], A549-ACE2 [9]
Details	0.3 µM	0.833333 µM	3.33333 µM	6.66667 µM	10 µM	30 µM
24 h	8.27	14.6	93.6	107	67.9	67.2
48 h	6.57	10.9	65	95.4	72.5	79.1
72 h	6.4	9.01	64.9	97.9	71.4	94.9

Details	drug sensitivity score	relative viability EC50 [µM]
Caco-2 [14]	2.6	–
Calu-3 [15]	3.2	–
Calu-3 [19]	–	3.21
HepG2 [11]	–	2.22
HepG2 [16]	4.45	–
U2OS [12]	–	2.61
U2OS [17]	3.9	–
Vero E6 [18]	0.8	–

Cc1ccc(-n2nc(C(C)(C)C)cc2NC(=O)Nc2ccc(OCCN3CCOCC3)c3ccccc23)cc1 [doramapimod]
Details	SARS-CoV-2 infection rate, [7] [%]	cell count, [1] [%]	cell viability, Caco-2 [2] [%]	cell viability, Calu-3 [3] [%]	cell viability, HepG2 [4] [%]	cell viability, U2OS [5] [%]	cell viability, Vero E6 [6] [%]	morphology score, [10]
1 nM	–	–	93.8	114	107	98.6	108	–
10 nM	–	–	108	97.3	105	104	95.2	–
100 nM	–	–	89.3	92.4	99.7	91.6	95.5	–
0.3 µM	105	91	–	–	–	–	–	-0.27
1000 nM	–	–	90.9	97.2	104	93.7	95.7	–
3 µM	68	105	–	–	–	–	–	0.36
10 µM	72	115	–	–	–	–	–	0.7
10000 nM	–	–	93.6	88.4	111	95.6	104	–
30 µM	16	70	–	–	–	–	–	0.44

drug-induced phospholipidosis [%], A549-ACE2 [9]
Details	0.3 µM	0.833333 µM	3.33333 µM	6.66667 µM	10 µM	30 µM
24 h	-1.22	-3.86	-2.5	7.51	20.8	66.3
48 h	-2.88	-4.62	-1.1	6.99	15.5	–
72 h	-1.89	-3.86	1.71	12.1	19.8	–

Details	drug sensitivity score	relative viability EC50 [µM]
Caco-2 [14]	0.3	–
Caco-2 [20]	–	> 10
Calu-3 [15]	0	–
Calu-3 [19]	–	> 10
HepG2 [11]	–	> 10
HepG2 [16]	0	–
U2OS [12]	–	> 10
U2OS [17]	0	–
Vero E6 [13]	–	> 10
Vero E6 [18]	0	–

CC(C)(C)c1ccc(C(=O)CCCN2CCC(OC(c3ccccc3)c3ccccc3)CC2)cc1 [ebastine]
Details	SARS-CoV-2 infection rate [%]	cell count [%]	cell viability [%]	morphology score	phospholipidosis EC50 [µM]
A549-ACE2 [8], 24 h	–	–	–	–	3.13
A549-ACE2 [8], 48 h	–	–	–	–	22.1
A549-ACE2 [8], 72 h	–	–	–	–	17.3
Caco-2 [2], 1 nM	–	–	97.6	–	–
Caco-2 [2], 10 nM	–	–	102	–	–
Caco-2 [2], 100 nM	–	–	104	–	–
Caco-2 [2], 1000 nM	–	–	98.8	–	–
Caco-2 [2], 10000 nM	–	–	68.2	–	–
Calu-3 [3], 1 nM	–	–	96.4	–	–
Calu-3 [3], 10 nM	–	–	95.7	–	–
Calu-3 [3], 100 nM	–	–	106	–	–
Calu-3 [3], 1000 nM	–	–	101	–	–
Calu-3 [3], 10000 nM	–	–	60.2	–	–
HepG2 [4], 1 nM	–	–	89.3	–	–
HepG2 [4], 10 nM	–	–	110	–	–
HepG2 [4], 100 nM	–	–	101	–	–
HepG2 [4], 1000 nM	–	–	108	–	–
HepG2 [4], 10000 nM	–	–	60.5	–	–
U2OS [5], 1 nM	–	–	99	–	–
U2OS [5], 10 nM	–	–	94.6	–	–
U2OS [5], 100 nM	–	–	102	–	–
U2OS [5], 1000 nM	–	–	93.6	–	–
U2OS [5], 10000 nM	–	–	87.9	–	–
Vero E6 [6], 1 nM	–	–	88.3	–	–
Vero E6 [6], 10 nM	–	–	98.7	–	–
Vero E6 [6], 100 nM	–	–	92.1	–	–
Vero E6 [6], 1000 nM	–	–	92	–	–
Vero E6 [6], 10000 nM	–	–	86.8	–	–
[1], 0.3 µM	–	99	–	–	–
[1], 3 µM	–	117	–	–	–
[1], 10 µM	–	111	–	–	–
[1], 30 µM	–	58	–	–	–
[7], 0.3 µM	105	–	–	–	–
[7], 3 µM	44	–	–	–	–
[7], 10 µM	26	–	–	–	–
[7], 30 µM	26	–	–	–	–
[10], 0.3 µM	–	–	–	-0.12	–
[10], 3 µM	–	–	–	0.71	–
[10], 10 µM	–	–	–	0.8	–
[10], 30 µM	–	–	–	0.25	–

drug-induced phospholipidosis [%], A549-ACE2 [9]
Details	0.3 µM	0.833333 µM	3.33333 µM	6.66667 µM	10 µM	30 µM
24 h	8.24	11.3	46.9	67.3	73.2	55.4
48 h	5.48	4.12	27.6	52.1	76.4	–
72 h	5.22	0.608	24.1	42.2	62.6	–

Details	drug sensitivity score	relative viability EC50 [µM]
Caco-2 [14]	1.6	–
Calu-3 [15]	1.9	–
HepG2 [16]	1.5	–
U2OS [12]	–	> 10
U2OS [17]	0.3	–
Vero E6 [13]	–	> 10
Vero E6 [18]	0	–
